From US12410160B2 (Gilead Sciences, Inc., priority 2021, dated 2025)

What was measured:
human KHK-A = human KHK-A (Homo sapiens (Human), UniProt P50053); assay: KHK Biochemical Assay (IC50), ADP-Glo, KHK-A; conditions: average of at least two separate assays
Method in brief: (§1)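 Luminescent ADP-Glo read-out of ADP made by His-tagged KHK (BL21 (DE3) expression, Ni-NTA). Enzyme and compound sat together 30 min before ATP/fructose addition, then reacted 4 h at RT in Hepes pH 7.4 buffer with KCl, MgCl2, Triton-X. Quench 1 h, detection 1 h.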

human KHK-C = human KHK-C (Homo sapiens (Human), UniProt P50053); assay: KHK Biochemical Assay (IC50), ADP-Glo, KHK-C; conditions: average of at least two separate assays
Method in brief: as §1

Sequence of human KHK-C (P50053 whole entry): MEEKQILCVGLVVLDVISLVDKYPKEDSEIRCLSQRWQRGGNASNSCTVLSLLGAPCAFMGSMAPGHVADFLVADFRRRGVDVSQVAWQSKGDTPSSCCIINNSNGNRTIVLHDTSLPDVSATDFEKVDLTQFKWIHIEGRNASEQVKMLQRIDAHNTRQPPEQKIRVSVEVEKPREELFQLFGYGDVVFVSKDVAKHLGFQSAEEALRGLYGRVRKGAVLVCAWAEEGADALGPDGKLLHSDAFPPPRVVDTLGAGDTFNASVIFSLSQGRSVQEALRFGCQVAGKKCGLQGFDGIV
Sequence of human KHK-A (P50053 other isoform, or with tags, fused parts or gaps): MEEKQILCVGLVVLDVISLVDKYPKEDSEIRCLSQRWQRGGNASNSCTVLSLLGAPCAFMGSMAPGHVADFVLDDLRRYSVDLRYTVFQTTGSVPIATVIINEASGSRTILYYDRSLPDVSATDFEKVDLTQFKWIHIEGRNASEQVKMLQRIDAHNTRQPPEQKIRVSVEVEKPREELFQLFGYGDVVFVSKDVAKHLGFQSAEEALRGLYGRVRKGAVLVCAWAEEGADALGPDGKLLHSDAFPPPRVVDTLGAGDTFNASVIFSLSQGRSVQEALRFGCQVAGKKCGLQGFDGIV

| Compound | IC50 (human KHK-A; ADP-Glo) [nM] | IC50 (human KHK-C; ADP-Glo) [nM] | IC50 (human KHK-A) [nM] | IC50 (human KHK-C) [nM] |
| --- | --- | --- | --- | --- |
| C[C@H]1CCN1c1nc2c(c(-c3ccccc3)n1)CC(C1CC1)C2 (stereo partly drawn) [Example 30, 6-cyclopropyl-2-((S)-2-methylazetidin-1-yl)-4-phenyl-6,7-dihydro-5H-cyclopenta[d]pyrimidine] | > 50000 | > 50000 | – | – |
| C[C@H]1CCN1c1nc(-c2ccccc2)c2c(n1)[C@H]1C[C@H]1C2 (single isomer, unassigned) [Example 334] | 9270 | 9700 | – | – |
| C[C@H]1[C@H](O)CN1c1nc2c(c(-c3cccc(C4CC4C(N)=O)c3)n1)CCC2 (stereo partly drawn) [Example 112, 2-(3-(2-((2S,3R)-3-hydroxy-2-methylazetidin-1-yl)-6,7-dihydro-5H-cyclopenta[d]pyrimidin-4-yl)phenyl)cyclopropane-1-carboxamide] | 103 | 68.8 | – | – |
| CCN1C(=O)NC2(COc3cc(-c4nc(N5C[C@@H](O)[C@@H]5C)nc5c4CCC5(F)F)ccc32)C1=O (stereo partly drawn) [Example 689, 6-[7,7-difluoro-2-[(2S,3R)-3-hydroxy-2-methyl-azetidin-1-yl]-5,6-dihydrocyclopenta[d]pyrimidin-4-yl]-3′-ethyl-spiro[2H-benzofuran-3,5′-imidazolidine]-2′,4′-dione] | – | – | 14.2 | 0.2 |
| C[C@H]1CCN1c1nc2c(c(-c3ccc(C(N)=O)c(C(=O)c4ccccc4)c3)n1)CCC2 [Example 843, (S)-2-benzoyl-4-(2-(2-methylazetidin-1-yl)-6,7-dihydro-5H-cyclopenta[d]pyrimidin-4-yl)benzamide] | 130 | 80.8 | – | – |
| C[C@H]1CCN1c1nc2c(c(-c3cccc(C(=O)NC4(C(=O)O)CC4)c3)n1)CCC2 [Example 67, (S)-1-(3-(2-(2-methylazetidin-1-yl)-6,7-dihydro-5H-cyclopenta[d]pyrimidin-4-yl)benzamido)cyclopropane-1-carboxylic acid] | 128 | 140 | – | – |
| C[C@H]1CCN1c1nc2c(c(-c3cccc(S(=N)(=O)c4ccccc4)c3)n1)CCC2 (stereo partly drawn) [Example 878, imino(3-(2-((S)-2-methylazetidin-1-yl)-6,7-dihydro-5H-cyclopenta[d]pyrimidin-4-yl)phenyl)(phenyl)-λ^6-sulfanone] | 37.8 | 86.9 | – | – |
| CC1OC[C@]2(COc3cc(-c4nc(N5C[C@@H](O)[C@@H]5C)nc5c4CCC5(F)F)ccc32)NC1=O (single isomer, unassigned) [Example 560] | – | – | 75.2 | 16.2 |
| COCCS(=N)(=O)c1cc(-c2nc(N3CC[C@@H]3C)nc3c2CCC3)ccc1OC (stereo partly drawn) [Example 869, imino(2-methoxy-5-(2-((S)-2-methylazetidin-1-yl)-6,7-dihydro-5H-cyclopenta[d]pyrimidin-4-yl)phenyl)(2-methoxyethyl)-λ^6-sulfanone] | 5.9 | 21.6 | – | – |
| C[C@H]1[C@H](O)CN1c1nc(-c2ccc3c(c2)COC[C@H]3NS(C)(=O)=O)c2c(n1)C(F)(F)CC2 [Example 578, N—((S)-7-(7,7-difluoro-2-((2S,3R)-3-hydroxy-2-methylazetidin-1-yl)-6,7-dihydro-5H-cyclopenta[d]pyrimidin-4-yl)isochroman-4-yl)methanesulfonamide] | – | – | 22.5 | 6.1 |
| CC1Cc2nc(N3CC[C@@H]3C)nc(-c3ccccc3)c2C1 (stereo partly drawn) [Example 337, 6-methyl-2-[(2S)-2-methylazetidin-1-yl]-4-phenyl-6,7-dihydro-5H-cyclopenta[d]pyrimidine] | 2950 | 5100 | – | – |
| C[C@H]1CCN1c1nc2c(c(-c3ccn(CCC(=O)O)n3)n1)CCC2 [Example 24, (S)-3-(3-(2-(2-methylazetidin-1-yl)-6,7-dihydro-5H-cyclopenta[d]pyrimidin-4-yl)-1H-pyrazol-1-yl)propanoic acid] | 615 | 420 | – | – |
| C[C@H]1CCN1c1nc2c(c(-c3cccc(C4CC4C(=O)O)c3)n1)CCC2 (stereo partly drawn) [Example 46, 2-(3-(2-((S)-2-methylazetidin-1-yl)-6,7-dihydro-5H-cyclopenta[d]pyrimidin-4-yl)phenyl)cyclopropane-1-carboxylic acid] | 10 | 7.6 | – | – |
| 2-[(2S)-2-methylazetidin-1-yl]-4-(3-methylimidazol-4-yl)-6,7-dihydro-5H-cyclopenta[d]pyrimidine [Example 341] | 133 | 111 | – | – |
| Cc1noc(C)c1S(=O)(=O)Nc1cccc(-c2nc(N3CC[C@@H]3C)nc3c2CCC3)c1 [Example 76, (S)-3,5-dimethyl-N-(3-(2-(2-methylazetidin-1-yl)-6,7-dihydro-5H-cyclopenta[d]pyrimidin-4-yl)phenyl)isoxazole-4-sulfonamide] | 1150 | 876 | – | – |
| C[C@H]1CCN1c1nc2c(c(-c3ccnnc3)n1)CCC2 [Example 343, 2-[(2S)-2-methylazetidin-1-yl]-4-pyridazin-4-yl-6,7-dihydro-5H-cyclopenta[d]pyrimidine] | 357 | 408 | – | – |
| COC(=O)N[C@H]1COc2cc(-c3nc(N4C[C@@H](O)[C@@H]4C)nc4c3CCC4(F)F)cc(OC)c21 (single isomer, unassigned) [Example 834] | 56.8 | 17.8 | – | – |

| Compound | IC50 (human KHK-A; ADP-Glo) [nM] | IC50 (human KHK-C; ADP-Glo) [nM] | IC50 (human KHK-A) [nM] | IC50 (human KHK-C) [nM] |
| --- | --- | --- | --- | --- |
| C[C@H]1CCN1c1nc2c(c(-c3ccc4c(c3)CCN(C)C4=O)n1)CCC2 [Example 222, (S)-2-methyl-6-(2-(2-methylazetidin-1-yl)-6,7-dihydro-5H-cyclopenta[d]pyrimidin-4-yl)-3,4-dihydroisoquinolin-1(2H)-one] | 75.1 | 79.2 | – | – |
| C[C@H]1CCN1c1nc(-c2ccccc2)c2ncsc2n1 [Example 26, (S)-5-(2-methylazetidin-1-yl)-7-phenylthiazolo[5,4-d]pyrimidine] | 1860 | 1540 | – | – |
| C[C@H]1CCN1c1nc2c(c(-c3ccc(C(=O)Nc4ccccc4)cc3)n1)CCC2 [Example 296, (S)-4-(2-(2-methylazetidin-1-yl)-6,7-dihydro-5H-cyclopenta[d]pyrimidin-4-yl)-N-phenylbenzamide] | 2090 | 3000 | – | – |
| Cc1cc(-c2nc(N3CC[C@@H]3C)nc3c2CCC3)ccc1C(=O)N(C)C [Example 357, N,N,2-trimethyl-4-[2-[(2S)-2-methylazetidin-1-yl]-6,7-dihydro-5H-cyclopenta[d]pyrimidin-4-yl]benzamide] | 122 | 162 | – | – |
| c1ccc(-c2nc(C3CCC3)nc3c2CCC3)cc1 [Example 97, 2-cyclobutyl-4-phenyl-6,7-dihydro-5H-cyclopenta[d]pyrimidine] | 937 | 2230 | – | – |
| C[C@H]1CCN1c1nc2c(c(-c3cccc(S(=O)(=O)N(C)C)c3)n1)CCC2 [Example 215, N,N-dimethyl-3-[2-[(2S)-2-methylazetidin-1-yl]-6,7-dihydro-5H-cyclopenta[d]pyrimidin-4-yl]benzenesulfonamide] | 78.9 | 106 | – | – |
| C[C@H]1CCN1c1nc2c(c(-c3ccc(S(C)(=O)=O)cc3)n1)CCC2 [Example 354, 2-[(2S)-2-methylazetidin-1-yl]-4-(4-methylsulfonylphenyl)-6,7-dihydro-5H-cyclopenta[d]pyrimidine] | 177 | 138 | – | – |
| C[C@H]1CCN1c1nc2c(c(-c3ccc(CNC(=O)c4ccccc4)cc3)n1)CCC2 [Example 360, N-[[4-[2-[(2S)-2-methylazetidin-1-yl]-6,7-dihydro-5H-cyclopenta[d]pyrimidin-4-yl]phenyl]methyl]benzamide] | 169 | 253 | – | – |
| C[C@H]1CCN1c1nc2c(c(-c3cccc(S(=N)(=O)c4ccc(C#N)cc4)c3)n1)CCC2 (stereo partly drawn) [Example 879, 4-(3-(2-((S)-2-methylazetidin-1-yl)-6,7-dihydro-5H-cyclopenta[d]pyrimidin-4-yl)phenylsulfonimidoyl)benzonitrile] | 41.6 | 46.7 | – | – |
| NC1(c2ccc(-c3nc(N4CCC4C(F)F)nc4c3CCC4(F)F)cc2)COC1 (stereo not drawn) [Example 678, 3-[4-[2-[2-(difluoromethyl)azetidin-1-yl]-7,7-difluoro-5,6-dihydrocyclopenta[d]pyrimidin-4-yl]phenyl]oxetan-3-amine] | – | – | 4.6 | 1.8 |
| COc1cc(S(=N)(=O)c2cccc(-c3nc(N4CC[C@@H]4C)nc4c3CCC4)c2)ccc1C#N (stereo partly drawn) [Example 848, 2-methoxy-4-(3-(2-((S)-2-methylazetidin-1-yl)-6,7-dihydro-5H-cyclopenta[d]pyrimidin-4-yl)phenylsulfonimidoyl)benzonitrile] | 249 | 186 | – | – |
| 3-(24(2S,3R)-3-fluoro-2-methylazetidin-1-yl)-6,8-dihydro-5H-pyrano[3,4-d]pyrimidin-4-yl)benzenesulfonamide [Example 287] | 696 | 1270 | – | – |
| C[C@H]1CCN1c1nc2c(c(-c3ccc4c(c3)[nH]c(=O)n4C)n1)CCC2 [Example 452, 3-methyl-6-[2-[(2S)-2-methylazetidin-1-yl]-6,7-dihydro-5H-cyclopenta[d]pyrimidin-4-yl]-1H-benzimidazol-2-one] | – | – | 103 | 68.3 |
| NC1(c2ccc(-c3nc(N4CC[C@H]4C(F)F)nc4c3CCC4(F)F)cc2)COC1 (single isomer, unassigned) [Example 688] | – | – | 96.5 | 59.6 |
| COC(=O)CCc1ccccc1-c1nc(N2CC[C@@H]2C)nc2c1CCC2 [Example 2, methyl (S)-3-(2-(2-(2-methylazetidin-1-yl)-6,7-dihydro-5H-cyclopenta[d]pyrimidin-4-yl)phenyl)propanoate] | 31000 | 30800 | – | – |
| Cc1cc(-c2nc(N3CC[C@@H]3C)nc3c2CCC3)cc2c1C(NS(C)(=O)=O)CC2 (stereo partly drawn) [Example 895, N-(7-methyl-5-(2-((S)-2-methylazetidin-1-yl)-6,7-dihydro-5H-cyclopenta[d]pyrimidin-4-yl)-2,3-dihydro-1H-inden-1-yl)methanesulfonamide] | 175 | 38.1 | – | – |
